Measured values reported in publication PMC5564600 (Oncotarget, 2017).

Key:
Experiment in all cases: biochemical
Type in all cases: binding
panel of 442 kinases [1] = target: T1, panel of 442 kinases (Homo sapiens, UniProt O14976); conditions: kinase GAK; for remaining activity at 1 µM: read-out: % of control at 1 µM
T1 construct: purchased Ambit Biosciences (scanMAXX KINOMEscan)
T1 sequence (O14976 1-1311): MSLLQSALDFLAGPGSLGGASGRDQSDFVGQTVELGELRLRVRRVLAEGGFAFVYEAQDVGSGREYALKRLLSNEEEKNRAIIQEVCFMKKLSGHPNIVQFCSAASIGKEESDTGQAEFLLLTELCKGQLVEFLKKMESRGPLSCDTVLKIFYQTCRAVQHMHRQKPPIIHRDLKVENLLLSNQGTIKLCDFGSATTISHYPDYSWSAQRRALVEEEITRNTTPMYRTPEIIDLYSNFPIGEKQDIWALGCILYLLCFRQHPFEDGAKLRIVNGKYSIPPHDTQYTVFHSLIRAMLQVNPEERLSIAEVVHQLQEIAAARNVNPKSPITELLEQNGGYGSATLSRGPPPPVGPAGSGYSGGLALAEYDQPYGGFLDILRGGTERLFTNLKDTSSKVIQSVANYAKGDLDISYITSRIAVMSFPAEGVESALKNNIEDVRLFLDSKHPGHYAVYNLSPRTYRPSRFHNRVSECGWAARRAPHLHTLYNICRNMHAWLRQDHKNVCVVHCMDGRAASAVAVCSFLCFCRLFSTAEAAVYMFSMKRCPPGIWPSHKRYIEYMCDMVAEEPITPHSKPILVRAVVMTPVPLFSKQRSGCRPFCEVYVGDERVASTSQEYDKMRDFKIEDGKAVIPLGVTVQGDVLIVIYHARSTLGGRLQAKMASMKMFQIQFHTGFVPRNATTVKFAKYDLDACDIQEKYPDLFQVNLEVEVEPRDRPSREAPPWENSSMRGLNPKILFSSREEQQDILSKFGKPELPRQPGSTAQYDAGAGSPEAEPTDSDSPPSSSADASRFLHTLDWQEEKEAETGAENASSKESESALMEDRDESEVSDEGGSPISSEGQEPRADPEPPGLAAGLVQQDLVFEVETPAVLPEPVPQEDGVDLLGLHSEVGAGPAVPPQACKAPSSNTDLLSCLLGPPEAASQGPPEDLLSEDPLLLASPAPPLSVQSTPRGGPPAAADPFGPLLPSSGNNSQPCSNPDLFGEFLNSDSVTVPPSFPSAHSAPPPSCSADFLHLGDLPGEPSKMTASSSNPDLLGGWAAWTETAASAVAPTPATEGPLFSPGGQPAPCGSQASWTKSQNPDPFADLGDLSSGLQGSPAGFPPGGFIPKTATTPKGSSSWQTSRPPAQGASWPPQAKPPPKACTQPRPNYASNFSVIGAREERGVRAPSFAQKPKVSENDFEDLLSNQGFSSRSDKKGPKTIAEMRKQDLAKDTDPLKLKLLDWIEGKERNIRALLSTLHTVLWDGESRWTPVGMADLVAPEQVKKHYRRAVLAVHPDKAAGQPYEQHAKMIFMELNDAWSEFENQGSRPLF

panel of 442 kinases [2] = target: T2, panel of 442 kinases (Homo sapiens, UniProt Q92630); conditions: DYRK2; for remaining activity at 1 µM: read-out: % of control at 1 µM
T2 construct: purchased Ambit Biosciences (scanMAXX KINOMEscan)
T2 sequence (Q92630 1-601): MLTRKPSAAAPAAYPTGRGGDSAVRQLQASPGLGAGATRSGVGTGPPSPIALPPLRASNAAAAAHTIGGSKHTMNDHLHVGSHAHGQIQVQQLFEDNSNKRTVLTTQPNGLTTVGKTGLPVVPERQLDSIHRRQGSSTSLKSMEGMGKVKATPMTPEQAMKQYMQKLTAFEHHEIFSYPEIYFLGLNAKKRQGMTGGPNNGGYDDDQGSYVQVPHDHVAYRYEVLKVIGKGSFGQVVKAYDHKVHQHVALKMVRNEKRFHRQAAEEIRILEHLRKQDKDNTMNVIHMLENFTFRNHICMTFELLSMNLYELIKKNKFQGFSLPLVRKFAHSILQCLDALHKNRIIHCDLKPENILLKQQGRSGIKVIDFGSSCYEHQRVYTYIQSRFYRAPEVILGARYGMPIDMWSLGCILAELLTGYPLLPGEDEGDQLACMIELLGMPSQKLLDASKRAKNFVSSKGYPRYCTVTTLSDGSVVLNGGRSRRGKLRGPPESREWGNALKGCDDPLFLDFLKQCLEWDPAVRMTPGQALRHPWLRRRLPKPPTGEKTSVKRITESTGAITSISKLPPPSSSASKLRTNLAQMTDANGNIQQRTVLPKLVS

panel of 442 kinases [3] = target: T3, panel of 442 kinases (Homo sapiens, UniProt Q13554); conditions: CAMK2B; for remaining activity at 1 µM: read-out: % of control at 1 µM
T3 construct: purchased Ambit Biosciences (scanMAXX KINOMEscan)

panel of 442 kinases [4] = target: T4, panel of 442 kinases (Homo sapiens, UniProt Q00537); conditions: kinase PCTK2; for remaining activity at 1 µM: read-out: % of control at 1 µM
T4 construct: purchased Ambit Biosciences (scanMAXX KINOMEscan)

panel of 442 kinases [5] = target: T5, panel of 442 kinases (Homo sapiens, UniProt Q9UEE5); conditions: DRAK1; for remaining activity at 1 µM: read-out: % of control at 1 µM
T5 construct: purchased Ambit Biosciences (scanMAXX KINOMEscan)
T5 sequence (Q9UEE5 1-414): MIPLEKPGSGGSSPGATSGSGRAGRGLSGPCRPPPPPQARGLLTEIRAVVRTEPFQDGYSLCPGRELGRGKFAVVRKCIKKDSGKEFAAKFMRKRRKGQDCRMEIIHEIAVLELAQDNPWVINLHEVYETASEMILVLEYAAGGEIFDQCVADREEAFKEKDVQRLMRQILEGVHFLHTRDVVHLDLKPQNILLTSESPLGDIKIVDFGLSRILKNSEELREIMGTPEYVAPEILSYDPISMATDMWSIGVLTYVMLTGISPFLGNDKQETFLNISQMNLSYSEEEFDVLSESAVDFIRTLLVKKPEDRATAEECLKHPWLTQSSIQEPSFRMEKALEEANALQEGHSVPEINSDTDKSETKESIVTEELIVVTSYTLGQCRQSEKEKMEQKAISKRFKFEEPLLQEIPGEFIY

panel of 442 kinases [6] = target: T6, panel of 442 kinases (Homo sapiens, UniProt Q9BYT3); conditions: kinase STK33; for remaining activity at 1 µM: read-out: STK33 (% of control at 1 µM)
T6 construct: purchased Ambit Biosciences (scanMAXX KINOMEscan)

[7] = 10 µM, read-out: % of control at 10 µM

T3 sequence (Q13554 whole entry): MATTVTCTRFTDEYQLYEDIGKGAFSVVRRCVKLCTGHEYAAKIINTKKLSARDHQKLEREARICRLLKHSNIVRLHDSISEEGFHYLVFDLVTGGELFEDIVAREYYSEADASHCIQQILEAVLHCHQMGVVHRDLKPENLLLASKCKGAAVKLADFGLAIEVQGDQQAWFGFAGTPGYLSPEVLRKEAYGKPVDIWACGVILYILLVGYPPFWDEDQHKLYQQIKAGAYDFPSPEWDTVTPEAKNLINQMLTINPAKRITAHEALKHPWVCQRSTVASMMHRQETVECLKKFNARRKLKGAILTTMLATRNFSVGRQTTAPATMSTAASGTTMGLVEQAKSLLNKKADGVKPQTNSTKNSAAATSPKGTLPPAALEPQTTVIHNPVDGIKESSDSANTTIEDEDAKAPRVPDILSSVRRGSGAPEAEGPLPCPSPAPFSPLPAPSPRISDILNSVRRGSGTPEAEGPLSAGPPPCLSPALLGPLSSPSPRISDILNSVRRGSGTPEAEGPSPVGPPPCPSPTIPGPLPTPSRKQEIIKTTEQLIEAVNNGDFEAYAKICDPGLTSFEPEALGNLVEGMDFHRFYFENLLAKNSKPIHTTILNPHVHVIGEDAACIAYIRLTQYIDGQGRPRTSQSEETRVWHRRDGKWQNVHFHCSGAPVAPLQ
T6 sequence (Q9BYT3 whole entry): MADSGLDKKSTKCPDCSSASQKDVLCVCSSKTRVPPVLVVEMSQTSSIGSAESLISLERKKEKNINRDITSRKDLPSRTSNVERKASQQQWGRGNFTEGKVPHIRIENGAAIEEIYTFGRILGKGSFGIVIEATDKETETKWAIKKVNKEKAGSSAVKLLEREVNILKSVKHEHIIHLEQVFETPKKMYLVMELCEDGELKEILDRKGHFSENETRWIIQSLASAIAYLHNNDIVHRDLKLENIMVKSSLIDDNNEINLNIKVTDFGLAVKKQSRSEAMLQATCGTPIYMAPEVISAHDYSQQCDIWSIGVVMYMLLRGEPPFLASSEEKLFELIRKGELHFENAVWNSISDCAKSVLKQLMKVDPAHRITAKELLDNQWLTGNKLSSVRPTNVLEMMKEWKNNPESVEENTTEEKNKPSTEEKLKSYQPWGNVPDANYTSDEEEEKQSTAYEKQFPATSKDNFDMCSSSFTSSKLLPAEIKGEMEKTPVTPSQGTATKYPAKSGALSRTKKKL
T4 sequence (Q00537 whole entry): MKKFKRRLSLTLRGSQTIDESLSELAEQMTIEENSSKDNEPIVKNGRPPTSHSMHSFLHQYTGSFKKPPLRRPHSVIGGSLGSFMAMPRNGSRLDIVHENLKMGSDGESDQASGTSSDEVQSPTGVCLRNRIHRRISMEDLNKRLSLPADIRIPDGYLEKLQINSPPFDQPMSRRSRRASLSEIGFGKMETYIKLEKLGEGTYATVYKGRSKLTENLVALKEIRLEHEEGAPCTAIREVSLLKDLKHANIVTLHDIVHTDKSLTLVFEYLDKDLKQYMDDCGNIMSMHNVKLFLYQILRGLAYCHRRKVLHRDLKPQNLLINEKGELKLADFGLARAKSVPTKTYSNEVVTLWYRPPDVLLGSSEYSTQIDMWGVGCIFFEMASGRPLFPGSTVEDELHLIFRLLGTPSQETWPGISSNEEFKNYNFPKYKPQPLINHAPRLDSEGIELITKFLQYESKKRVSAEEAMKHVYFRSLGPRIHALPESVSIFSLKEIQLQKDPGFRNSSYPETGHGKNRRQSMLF

SMILES | remaining activity at 1 µM (panel of 442 kinases [1]) [%] | remaining activity at 10 µM (panel of 442 kinases [1]; [7]) [%] | remaining activity at 1 µM (panel of 442 kinases [2]) [%] | remaining activity at 10 µM (panel of 442 kinases [2]; [7]) [%] | remaining activity at 1 µM (panel of 442 kinases [3]) [%] | remaining activity at 10 µM (panel of 442 kinases [3]; [7]) [%] | remaining activity at 1 µM (panel of 442 kinases [4]) [%] | remaining activity at 10 µM (panel of 442 kinases [4]; [7]) [%] | remaining activity at 1 µM (panel of 442 kinases [5]) [%] | remaining activity at 10 µM (panel of 442 kinases [5]; [7]) [%] | remaining activity at 1 µM (panel of 442 kinases [6]) [%] | remaining activity at 10 µM (panel of 442 kinases [6]; 10 µM, read-out: STK33 (% of control at 10 µM)) [%]
Nc1cc(C(F)(F)F)c(-c2cc(N3CCOCC3)nc(N3CCOCC3)n2)cn1 [Buparlisib] | 100 | 100 | 80 | 100 | 80 | 79 | 87 | 69 | 100 | 100 | 90 | 97
COc1ncc(-c2ccc3nccc(-c4ccnnc4)c3c2)cc1NS(=O)(=O)c1ccc(F)cc1F [Omipalisib] | 61 | – | 88 | – | 100 | – | 100 | – | 100 | – | 100 | –
FC(F)c1nc2ccccc2n1-c1nc(N2CCOCC2)nc(N2CCOCC2)n1 [ZSTK474, 2-(difluoromethyl)-1-[4,6-di(4-morpholinyl)-1,3,5-triazin-2-yl]-1H-benzimidazole] | 78 | – | 78 | – | 100 | – | 100 | – | 90 | – | 100 | –
Cn1c(=O)n(-c2ccc(C(C)(C)C#N)cc2)c2c3cc(-c4cnc5ccccc5c4)ccc3ncc21 [Dactolisib, 2-methyl-2-[4-(3-methyl-2-oxo-8-quinolin-3-yl-2,3-dihydroimidazo[4,5-c]quinolin-1-yl)-phenyl] propionitrile] | 60 | – | 67 | – | 87 | – | 100 | – | 91 | – | 100 | –
